Laboratory results as given in patent US10653744B2, “Formulations and methods for treating ulcerative colitis” (priority 2016, dated 2020).
Positions of bridges follow the written chain, without caps; N, C: chain ends. Non-standard residues stand in square brackets, D forms with d. No end group written: not given here.

Columns and labels:
[1] = test system: TNBS-induced acute colitis; details: oral treatment, murine model; cited from earlier work
[2] = test system: patients with mild to moderate ulcerative colitis; assay: Double-blind, placebo-controlled, four-week study of rectal dolcanatide in ulcerative colitis patients; format: in vivo, human; details: for improvement of ulcerative colitis symptoms compared with placebo-treated patients: 6 mg dissolved in saline, intra-rectally every evening for 28 days, 28 patients
Protocol: A double-blind, placebo-controlled, four-week study evaluating 28 patients with mild-to-moderate ulcerative colitis was conducted. Patients received 6 mg Dolcanatide dissolved in saline administered intra-rectally each evening for 28 days.
A double-blind, placebo-controlled, four week study was performed evaluating 28 patients with mild to moderate ulcerative colitis. Subjects were treated with either saline (placebo) or Dolcanatide (SP-333; SEQ ID NO: 9). Six mg of Dolcanatide was dissolved in saline and administered intra-rectally every evening for 28 days.

[3] = test system: DSS-induced acute colitis; details: oral treatment, murine model; cited from earlier work

Substance: dAsn^1-Asp^2-Glu^3-Cys^4-Glu^5-Leu^6-Cys^7-Val^8-Asn^9-Val^10-Ala^11-Cys^12-Thr^13-Gly^14-Cys^15-dLeu^16 ([dN]DECELCVNVACTGC[dL]; disulfide 4-12, 7-15; ends not checked) [Dolcanatide]
- effect on TNBS-induced acute colitis [1]: ameliorate
- improvement of ulcerative colitis symptoms compared with placebo-treated patients [2]: Improved Ulcerative Colitis Symptoms
- improvement of ulcerative colitis symptoms compared with placebo-treated patients ([2]; listed as dolcanatide): clear signals of improvement
- safety and tolerability ([2]; 6 mg intra-rectally each evening for 28 days): safe and well tolerated
- remission from ulcerative colitis symptoms ([2]; after 28 days of treatment, 6 mg intra-rectally every evening): in remission from their ulcerative colitis symptoms
- effect on DSS-induced acute colitis [3]: ameliorate
